Data on 21 compounds can be found in US20230278997A1, “BICYCLO[1.1.1]PENTANE COMPOUNDS FOR THE TREATMENT AND PROPHYLAXIS OF HEPATITIS B VIRUS INFECTION” (Hoffmann-La Roche Inc., priority 2020, published 2023).

By IC50 is commonly meant the point on the concentration scale where inhibition reaches its midpoint.

For data set [1], the system named is primary human hepatocyte (PHH). The experiment in a line: Cytotoxicity in PHH natural infection assay (Cell Counting Kit-8). The class given is cell-based. The following applies: therapeutic index; CC50 by CCK8 in PHH over HBsAg IC50. Here is the method: Detailed procedures regarding primary human hepatocyte (PHH) HBV natural infection assay are described as below. One tube of frozen PHH (10 million cells) was thawed in 37° C. water bath and then transferred to 20 mL of PHH thawing medium (Sigma, InVitroGRO HT Medium, Cat. 503319) with gently mixing. The cells were then centrifuged at […] for 5 min, the supernatant was discarded and the tube was refilled with 25 mL of PHH plating medium (Sigma, InVitroGRO CP Medium, Cat. 503317). The tube was shaken very gently to re-suspend all cells, and then 50 μl of cells were transferred to each well of a 384-well collagen I coated plate with appropriate liquid handling equipment, e.g. Integra VIAFLO384 or Agilent Bravo. The cells were then cultured for 24 hours in a cell incubator. For HBV infection, after PHH attachment on the culture plate, the plating medium was removed and replenished with PHH culture medium containing HBV virus. The PHH culture medium was prepared with Dulbecco's Modified Eagle Medium (DMEM)/F12 (1:1 in volume ratio) containing 10% fetal bovine serum (Gibco, Cat.10099141), 5 ng/mL human epidermal growth factor (Gibco, Cat.PHG031 IL), 20 ng/mL dexamethasone (Sigma, Cat.D4902-100 mg), 250 ng/mL human recombinant insulin (Gibco, Cat.41400045) and 100 U/mL penicillin. HBV virus at 200 genome equivalent (GE) per cell with 4% PEG8000 (Sigma, Cat.P1458) containing culture medium were added to the PHH culture medium for infection. The cells were then cultured for 24 hours in cell incubator. Then the cell culture supernatant was removed. The HBV-infected PHH were cultured with sandwich culture method with PHH culture medium containing 1% DMSO and 0.25 mg/mL matrix gel for 72 hours. The supernatant was then refreshed with PHH culture medium containing different concentrations of testing compounds for two times with 72-hour interval. At the end of treatment, the supernatant was collected for viral markers measurements, including HBsAg, HBeAg, HBV DNA and cytotoxicity. HBsAg and HBeAg were detected using alphalisa method using their specific antibodies. For HBV DNA detection, HBV DNA Quantitative Fluorescence Diagnostic Kit (Sansure Biotech Inc.) was used following the manufacture's protocol. Cytotoxicity was determined using Cell Counting Kit-8 (CCK8, Dojindo Molecular Technologies, Inc.).
Background: Tetrazolium dyes change colour on reduction, which living cells bring about.

Data set [2] is described as follows: Human microsome stability assay. The class given is in vitro ADME. The settings on record: 1 μM compound, 0.5 mg/mL microsomal protein, 37° C.; detection limit 6.15 mL/min/kg. Here is the method: Human Microsome Stability Assay The human microsomal stability assay is used for early assessment of metabolic stability of a test compound in human liver microsomes. Human liver microsomes (Cat. […] The reactions were initiated by adding NADPH regenerating system. […] Following precipitation and centrifugation, the amount of compound remaining in the samples were determined by LC-MS/MS. Controls of no NADPH regenerating system at zero and 30 minutes were also prepared and analyzed.

The test system of data set [3] is HBsAg. The data set can be described thus: microbe, parasite or virus in culture. The class given is cell-based, HBV. The settings on record: Hepatitis B virus, read-out: HBsAg IC50.
Data set [4] relates to HBeAg. The data set can be described thus: microbe, parasite or virus in culture. The class given is cell-based, HBV. The following applies: Hepatitis B virus, read-out: HBeAg IC50.

Regarding `CS(=O)(=O)C1(c2ccc(C(=O)NC34CC(c5nc(-c6cccc(Cl)c6)cs5)(C3)C4)o2)CC1` [Example 2, N-[3-[4-(3-chlorophenyl)thiazol-2-yl]-1-bicyclo[1.1.1]pentanyl]-5-(1-methylsulfonylcyclopropyl)furan-2-carboxamide], in data set [1], the “TI (CC50/IC50 HBsAg)” value is 20.66. Also, the “Clearance of human microsome” value in data set [2] is not above 6.15 mL/min/kg. Moreover, the values for the IC50 in data set [3] and in data set [4] were 350 nM and 200 nM, respectively.
Turning to `CS(=O)(=O)C1(c2ccc(C(=O)NC34CC(c5nc(-c6ccccc6Cl)cs5)(C3)C4)o2)CC1` [Example 3, N-[3-[4-(2-chlorophenyl)thiazol-2-yl]-1-bicyclo[1.1.1]pentanyl]-5-(1-methylsulfonylcyclopropyl)furan-2-carboxamide], the “TI (CC50/IC50 HBsAg)” value in data set [1] is on record as 8.85. Besides, the “Clearance of human microsome” value in data set [2] is recorded as not above 6.15 mL/min/kg. Moreover, the IC50 is 670 nM in data set [3] and 500 nM in data set [4].
With `CS(=O)(=O)Cc1ncc(C(=O)NC23CC(c4nc(-c5ccc(Cl)cc5)cs4)(C2)C3)o1` [Example 5, N-[3-[4-(4-chlorophenyl)thiazol-2-yl]-1-bicyclo[1.1.1]pentanyl]-2-(methylsulfonylmethyl)oxazole-5-carboxamide], the “Clearance of human microsome” value in data set [2] is recorded as not above 6.15 mL/min/kg.
On the same count and under the same terms, as for `CS(=O)(=O)C1(c2ccc(C(=O)NC34CC(c5nc(-c6ccc(Cl)nc6)cs5)(C3)C4)o2)CC1` [Example 9, N-[3-[4-(6-chloro-3-pyridyl)thiazol-2-yl]-1-bicyclo[1.1.1]pentanyl]-5-(1-methylsulfonylcyclopropyl)furan-2-carboxamide], the figure is not above 6.15 mL/min/kg; as for `CS(=O)(=O)C1(c2ccc(C(=O)NC34CC(c5nc(C6CC6)cs5)(C3)C4)o2)CC1` [Example 14, N-[3-(4-cyclopropylthiazol-2-yl)-1-bicyclo[1.1.1]pentanyl]-5-(1-methylsulfonylcyclopropyl)furan-2-carboxamide], not above 6.15 mL/min/kg; as for `CS(=O)(=O)C1(c2ccc(C(=O)NC34CC(c5nc(C(F)(F)F)cs5)(C3)C4)o2)CC1` [Example 16, 5-(1-methylsulfonylcyclopropyl)-N-[3-[4-(trifluoromethyl)thiazol-2-yl]-1-bicyclo[1.1.1]pentanyl]furan-2-carboxamide], not above 6.15 mL/min/kg.
For the compound `CS(=O)(=O)C1(c2ccc(C(=O)NC34CC(c5nc(-c6ccccc6)ns5)(C3)C4)o2)CC1` [Example 17, 5-(1-methylsulfonylcyclopropyl)-N-[3-(3-phenyl-1,2,4-thiadiazol-5-yl)-1-bicyclo[1.1.1]pentanyl]furan-2-carboxamide], the “Clearance of human microsome” value in data set [2] was not above 6.15 mL/min/kg.
With `CS(=O)(=O)C1(c2nnc(C(=O)NC34CC(c5ncc(-c6ccc(Cl)cc6)s5)(C3)C4)o2)CC1` [Example 20, N-[3-[5-(4-chlorophenyl)thiazol-2-yl]-1-bicyclo[1.1.1]pentanyl]-5-(1-methylsulfonylcyclopropyl)-1,3,4-oxadiazole-2-carboxamide], the “Clearance of human microsome” value in data set [2] was not above 6.15 mL/min/kg.
For the compound `CS(=O)(=O)C1(c2ccc(C(=O)NC34CC(c5ncc(-c6ccccc6)s5)(C3)C4)o2)CC1` [Example 22, 5-(1-methylsulfonylcyclopropyl)-N-[3-(5-phenylthiazol-2-yl)-1-bicyclo[1.1.1]pentanyl]furan-2-carboxamide], the “Clearance of human microsome” value in data set [2] is not above 6.15 mL/min/kg.
`CS(=O)(=O)C1(c2ccc(C(=O)NC34CC(c5ncc(C6CC6)s5)(C3)C4)o2)CC1` [Example 23, N-[3-(5-cyclopropylthiazol-2-yl)-1-bicyclo[1.1.1]pentanyl]-5-(1-methylsulfonylcyclopropyl)furan-2-carboxamide]: in data set [2], the “Clearance of human microsome” value was not above 6.15 mL/min/kg.
Consider `CS(=O)(=O)C1(c2ccc(C(=O)NC34CC(c5ncc(Br)s5)(C3)C4)o2)CC1` [Example 24, N-[3-(5-bromothiazol-2-yl)-1-bicyclo[1.1.1]pentanyl]-5-(1-methylsulfonylcyclopropyl)furan-2-carboxamide], for which the “Clearance of human microsome” value in data set [2] is reported as not above 6.15 mL/min/kg.
Same read-out and setting: the result for `CS(=O)(=O)C1(c2ccc(C(=O)NC34CC(c5nsc(-c6ccccc6)n5)(C3)C4)o2)CC1` [Example 25, 5-(1-methylsulfonylcyclopropyl)-N-[3-(5-phenyl-1,2,4-thiadiazol-3-yl)-1-bicyclo[1.1.1]pentanyl]furan-2-carboxamide] reads not above 6.15 mL/min/kg; that for `CS(=O)(=O)C1(c2ccc(C(=O)NC34CC(c5nnc(-c6ccc(Cl)cc6)o5)(C3)C4)o2)CC1` [Example 28, N-[3-[5-(4-chlorophenyl)-1,3,4-oxadiazol-2-yl]-1-bicyclo[1.1.1]pentanyl]-5-(1-methylsulfonylcyclopropyl)furan-2-carboxamide], not above 6.15 mL/min/kg; that for `CS(=O)(=O)C1(c2ccc(C(=O)NC34CC(c5cn(-c6ccc(Cl)cc6)nn5)(C3)C4)o2)CC1` [Example 29, N-[3-[1-(4-chlorophenyl)triazol-4-yl]-1-bicyclo[1.1.1]pentanyl]-5-(1-methylsulfonylcyclopropyl)furan-2-carboxamide], not above 6.15 mL/min/kg.
Regarding `NC(=O)c1cc(C(=O)NC23CC(c4nc(-c5ccc(Cl)cc5)no4)(C2)C3)ccn1` [Example 36, N4-[3-[3-(4-chlorophenyl)-1,2,4-oxadiazol-5-yl]-1-bicyclo[1.1.1]pentanyl]pyridine-2,4-dicarboxamide], the “Clearance of human microsome” value in data set [2] turned out to be 11.99 mL/min/kg.
Turning to `CS(=O)(=O)C1(c2ccn(C(=O)NC34CC(c5nc(-c6ccc(Cl)cc6)cs5)(C3)C4)n2)CC1` [Example 53, N-[3-[4-(4-chlorophenyl)thiazol-2-yl]-1-bicyclo[1.1.1]pentanyl]-3-(1-methylsulfonylcyclopropyl)pyrazole-1-carboxamide], the “TI (CC50/IC50 HBsAg)” value in data set [1] came to 21.88. For the same compound, the IC50 in data set [3] stood at 170 nM; in data set [4] it was 110 nM.
As for `CS(=O)(=O)C1(c2ccn(C(=O)NC34CC(c5ncc(-c6ccc(Cl)cc6)s5)(C3)C4)n2)CC1` [Example 54, N-[3-[5-(4-chlorophenyl)thiazol-2-yl]-1-bicyclo[1.1.1]pentanyl]-3-(1-methylsulfonylcyclopropyl)pyrazole-1-carboxamide], the “TI (CC50/IC50 HBsAg)” value in data set [1] came out at 10.83. In addition, the IC50 in data set [3] was 60 nM; in data set [4] it was 50 nM.
As for `CS(=O)(=O)C1(c2ncc(C(=O)NC34CC(c5ncc(-c6ccc(Cl)cc6)s5)(C3)C4)o2)CC1` [Example 55, N-[3-[5-(4-chlorophenyl)thiazol-2-yl]-1-bicyclo[1.1.1]pentanyl]-2-(1-methylsulfonylcyclopropyl)oxazole-5-carboxamide], the “TI (CC50/IC50 HBsAg)” value in data set [1] was 89.00. The IC50 was found to be 90 nM in data set [3] and 70 nM in data set [4].
Regarding `CS(=O)(=O)C1(c2ccc(C(=O)NC34CC(c5ncc(-c6ccc(Cl)nc6)s5)(C3)C4)o2)CC1` [Example 56, N-[3-[5-(6-chloro-3-pyridyl)thiazol-2-yl]-1-bicyclo[1.1.1]pentanyl]-5-(1-methylsulfonylcyclopropyl)furan-2-carboxamide], the “Clearance of human microsome” value in data set [2] was not above 6.15 mL/min/kg.
Turning to `CS(=O)(=O)C1(c2ccc(C(=O)NC34CC(c5ncc(-c6ccc(Cl)cn6)s5)(C3)C4)o2)CC1` [Example 57, N-[3-[5-(5-chloro-2-pyridyl)thiazol-2-yl]-1-bicyclo[11.11]pentanyl]-5-(1-methylsulfonylcyclopropyl)furan-2-carboxamide], the “Clearance of human microsome” value in data set [2] is 15.39 mL/min/kg.
The same measure, in the same setting: the result for `CS(=O)(=O)C1(c2ccc(C(=O)NC34CC(c5ncc(-c6cnc(Cl)cn6)s5)(C3)C4)o2)CC1` [Example 59, N-[3-[5-(5-chloropyrazin-2-yl)thiazol-2-yl]-1-bicyclo[1.1.1]pentanyl]-5-(1-methylsulfonylcyclopropyl)furan-2-carboxamide] reads 6.89 mL/min/kg.
